# Measured values from US10813354B2, “Herbicidal pyridazinone compounds” (SYNGENTA PARTICIPATIONS AG, priority 2016, dated 2020).
# How the values were obtained:
# Format in all cases: in vivo
# Settings in all cases: sprayed after 10 days cultivation, evaluated after 14 days
# [1] = test system: HORVW (Hordeum vulgare—barley); experiment: Post-emergence glasshouse herbicide test, crop damage on barley
# Protocol: (§1) Seeds of a variety of test species HORVW (Hordeum vulgare—barley), ABUTH (Abutilon theophrasti), AMARE (Amaranthus retroflexus) and ECHCG (Echinochloa crus-galli) were sown in standard soil in pots. After cultivation for 10 days cultivation under controlled conditions in a glasshouse (at 24/16° C., day/night; 14 hours light; 65% humidity), the plants were sprayed with an aqueous spray solution derived from the formulation of the technical active ingredient in 0.6 ml acetone and 45 ml formulation solution containing 10.6% Emulsogen EL (Registry number 61791-12-6), 42.2% N-methyl pyrrolidone, 42.2% dipropylene glycol monomethyl ether (CAS RN 34590-94-8) and 0.2% X-77 (CAS RN 11097-66-8).
# (§2) The test plants were then grown in a glasshouse under controlled conditions in a glasshouse (at 24/16° C., day/night; 14 hours light; 65% humidity) and watered twice daily. After 14 days, the test was evaluated (100=total damage to plant; 0=no damage to plant).
# [2] = test system: ECHCG (Echinochloa crus-galli); experiment: Post-emergence glasshouse herbicide test on ECHCG
# Protocol: as §1, §2
# [3] = test system: AMARE (Amaranthus retroflexus); experiment: Post-emergence glasshouse herbicide test on AMARE
# Protocol: as §1, §2
# [4] = test system: ABUTH (Abutilon theophrasti); experiment: Post-emergence glasshouse herbicide test on ABUTH
# Protocol: as §1, §2
smiles,measurement,setting,value
"COc1ccc(-n2nc(C)cc(C(=O)C3C(=O)C4CCC(C4)C3=O)c2=O)cc1OC (centres unmarked) [Compound 1.1, 3-[2-(3,4-dimethoxyphenyl)-6-methyl-3-oxo-pyridazine-4-carbonyl]bicyclo[3.2.1]octane-2,4-dione]",HORVW damage to plant (100=total damage to plant; 0=no damage to plant),[1]; Rate 125 g/ha,0
same,HORVW damage to plant (100=total damage to plant; 0=no damage to plant),[1]; Rate 250 g/ha,0
same,ECHCG damage to plant (100=total damage to plant; 0=no damage to plant),[2]; Rate 125 g/ha,100
same,ECHCG damage to plant (100=total damage to plant; 0=no damage to plant),[2]; Rate 250 g/ha,100
same,AMARE damage to plant (100=total damage to plant; 0=no damage to plant),[3]; Rate 125 g/ha,100
same,AMARE damage to plant (100=total damage to plant; 0=no damage to plant),[3]; Rate 250 g/ha,100
same,ABUTH damage to plant (100=total damage to plant; 0=no damage to plant),[4]; Rate 125 g/ha,100
same,ABUTH damage to plant (100=total damage to plant; 0=no damage to plant),[4]; Rate 250 g/ha,100
COc1ccc(-n2nc(C)cc(C(=O)C3C(=O)CC(C)CC3=O)c2=O)cc1OC (centres unmarked) [Compound 1.2],HORVW damage to plant (100=total damage to plant; 0=no damage to plant),[1]; Rate 125 g/ha,0
same,HORVW damage to plant (100=total damage to plant; 0=no damage to plant),[1]; Rate 250 g/ha,0
same,ECHCG damage to plant (100=total damage to plant; 0=no damage to plant),[2]; Rate 125 g/ha,100
same,ECHCG damage to plant (100=total damage to plant; 0=no damage to plant),[2]; Rate 250 g/ha,100
same,AMARE damage to plant (100=total damage to plant; 0=no damage to plant),[3]; Rate 125 g/ha,100
same,AMARE damage to plant (100=total damage to plant; 0=no damage to plant),[3]; Rate 250 g/ha,100
same,ABUTH damage to plant (100=total damage to plant; 0=no damage to plant),[4]; Rate 125 g/ha,100
same,ABUTH damage to plant (100=total damage to plant; 0=no damage to plant),[4]; Rate 250 g/ha,100
"COc1ccc(-n2nc(C)cc(C(=O)C3C(=O)CCCC3=O)c2=O)cc1OC [Compound 1.3, 2-[2-(3,4-Dimethoxyphenyl)-6-methyl-3-oxo-pyridazine-4-carbonyl]cyclohexane-1,3-dione]",HORVW damage to plant (100=total damage to plant; 0=no damage to plant),[1]; Rate 125 g/ha,0
same,HORVW damage to plant (100=total damage to plant; 0=no damage to plant),[1]; Rate 250 g/ha,0
same,ECHCG damage to plant (100=total damage to plant; 0=no damage to plant),[2]; Rate 125 g/ha,100
same,ECHCG damage to plant (100=total damage to plant; 0=no damage to plant),[2]; Rate 250 g/ha,100
same,AMARE damage to plant (100=total damage to plant; 0=no damage to plant),[3]; Rate 125 g/ha,100
same,AMARE damage to plant (100=total damage to plant; 0=no damage to plant),[3]; Rate 250 g/ha,100
same,ABUTH damage to plant (100=total damage to plant; 0=no damage to plant),[4]; Rate 125 g/ha,100
same,ABUTH damage to plant (100=total damage to plant; 0=no damage to plant),[4]; Rate 250 g/ha,100
COc1ccc(-n2nc(C)cc(C(=O)C3C(=O)CC(C)(C)CC3=O)c2=O)cc1OC [Compound 1.4],HORVW damage to plant (100=total damage to plant; 0=no damage to plant),[1]; Rate 125 g/ha,0
same,HORVW damage to plant (100=total damage to plant; 0=no damage to plant),[1]; Rate 250 g/ha,10
same,ECHCG damage to plant (100=total damage to plant; 0=no damage to plant),[2]; Rate 125 g/ha,100
same,ECHCG damage to plant (100=total damage to plant; 0=no damage to plant),[2]; Rate 250 g/ha,100
same,AMARE damage to plant (100=total damage to plant; 0=no damage to plant),[3]; Rate 125 g/ha,100
same,AMARE damage to plant (100=total damage to plant; 0=no damage to plant),[3]; Rate 250 g/ha,100
same,ABUTH damage to plant (100=total damage to plant; 0=no damage to plant),[4]; Rate 125 g/ha,100
same,ABUTH damage to plant (100=total damage to plant; 0=no damage to plant),[4]; Rate 250 g/ha,100
COc1ccc(-n2nc(C)cc(C(=O)C3C(=O)C(C)(C)C(=O)C(C)(C)C3=O)c2=O)cc1OC [Compound 1.5],HORVW damage to plant (100=total damage to plant; 0=no damage to plant),[1]; Rate 125 g/ha,0
same,HORVW damage to plant (100=total damage to plant; 0=no damage to plant),[1]; Rate 250 g/ha,0
same,ECHCG damage to plant (100=total damage to plant; 0=no damage to plant),[2]; Rate 125 g/ha,90
same,ECHCG damage to plant (100=total damage to plant; 0=no damage to plant),[2]; Rate 250 g/ha,90
same,AMARE damage to plant (100=total damage to plant; 0=no damage to plant),[3]; Rate 125 g/ha,100
same,AMARE damage to plant (100=total damage to plant; 0=no damage to plant),[3]; Rate 250 g/ha,100
same,ABUTH damage to plant (100=total damage to plant; 0=no damage to plant),[4]; Rate 125 g/ha,100
same,ABUTH damage to plant (100=total damage to plant; 0=no damage to plant),[4]; Rate 250 g/ha,100
COc1ccc(-n2nc(C3CC3)cc(C(=O)C3C(=O)C4CCC(C4)C3=O)c2=O)cc1OC (centres unmarked) [Compound 1.9],HORVW damage to plant (100=total damage to plant; 0=no damage to plant),[1]; Rate 125 g/ha,0
same,HORVW damage to plant (100=total damage to plant; 0=no damage to plant),[1]; Rate 250 g/ha,10
same,ECHCG damage to plant (100=total damage to plant; 0=no damage to plant),[2]; Rate 125 g/ha,100
same,ECHCG damage to plant (100=total damage to plant; 0=no damage to plant),[2]; Rate 250 g/ha,100
same,AMARE damage to plant (100=total damage to plant; 0=no damage to plant),[3]; Rate 125 g/ha,90
same,AMARE damage to plant (100=total damage to plant; 0=no damage to plant),[3]; Rate 250 g/ha,100
same,ABUTH damage to plant (100=total damage to plant; 0=no damage to plant),[4]; Rate 125 g/ha,100
same,ABUTH damage to plant (100=total damage to plant; 0=no damage to plant),[4]; Rate 250 g/ha,100
"COc1ccc(-n2nc(C3CC3)cc(C(=O)C3C(=O)C(C)(C)C(=O)C(C)(C)C3=O)c2=O)cc1OC [Compound 1.11, 6-[6-cyclopropyl-2-(3,4-dimethoxyphenyl)-3-oxo-pyridazine-4-carbonyl]-2,2,4,4-tetramethyl-cyclohexane-1,3,5-trione]",HORVW damage to plant (100=total damage to plant; 0=no damage to plant),[1]; Rate 125 g/ha,0
same,HORVW damage to plant (100=total damage to plant; 0=no damage to plant),[1]; Rate 250 g/ha,0
same,ECHCG damage to plant (100=total damage to plant; 0=no damage to plant),[2]; Rate 125 g/ha,100
same,ECHCG damage to plant (100=total damage to plant; 0=no damage to plant),[2]; Rate 250 g/ha,100
same,AMARE damage to plant (100=total damage to plant; 0=no damage to plant),[3]; Rate 125 g/ha,100
same,AMARE damage to plant (100=total damage to plant; 0=no damage to plant),[3]; Rate 250 g/ha,100
same,ABUTH damage to plant (100=total damage to plant; 0=no damage to plant),[4]; Rate 125 g/ha,100
same,ABUTH damage to plant (100=total damage to plant; 0=no damage to plant),[4]; Rate 250 g/ha,100
